Experimental data reported in patent publication US5389615A, “Peptides and pharmaceutical composition thereof in the treatment of pain” (British Technology Group Ltd., priority 1988, dated 1995).
Several values for one entry are separate records, joined by “and”; a condition that tells them apart may be missing. Equal entries are not always repeated. Where two headings read alike, the source gives them in different places. Non-standard residues stand in square brackets, D forms with d. Residues, ends and D or L forms follow the SMILES beside them.

Tests used:
[1] = test system: hyperalgesia evoked by Iloprost; experiment: Contortions (writhing) evoked by Iloprost, Examples 9 and 10; format: in vivo, mice; details: Example 10, Iloprost 10 μg/kg; for total number of contorsions during 20 minutes after ip challenge: control 39.4
Description: (§1) Iloprost is a stable analogue of prostacyclin and has the formula: [drawing 4]
(§2) Example 9 was repeated with some groups of mice given indomethacin at various doses rather than the peptide K(D)PT. A control group of mice received neither indomethacin nor K(D)PT. The data are the total number of contorsions measured during 20 minutes after the ip challenge.

[2] = test system: hyperalgesia evoked by IL-1β; experiment: Modified Randall-Sellito rat paw pressure test, hyperalgesia evoked by IL-1β; format: in vivo; details: for DELTA REACTION TIME: 3h after IL-1β, control 23.9; for ED50 antagonising IL-1β evoked hyperalgesia / antagonism of hyperalgesia evoked by IL-1β: rats; for antagonism of hyperalgesia evoked by IL-1β: peptide given before IL-1β
Description: The hyperalgesic activity of IL-1β was investigated by a modified Randall-Sellito rat paw pressure test (Ferreira et al, Eur. J. Pharacol. 53, 39-48, 1978).
The IL-1β was given either intraplantar (ipl, injection volume=0.1 ml) or intraperitoneally (ip, injection volume=0.3 ml).
The intensity of hyperalgesia was quantified as the variation of the reaction time (Δ reaction time, sec) obtained by subtracting the value measured 1,2,3 or 4h after administration of the hyperalgesic agent from the pre-injection control reaction time (zero time). The experimenter was unaware of the group treatments.
The vertical bars are standard errors of the means (s.e.m's) of values obtained in groups of 5 rats.
Each symbol or histogram represents the mean response of 5 animals per treatment group. Vertical bars are s.e.m's.
The data are means±s.e.m.'s of 5 animals per treatment group.
Each symbol represents the mean response of 5 animals per treatment group. Vertical bars are s.e.m.'s.
Treatments were given ip, lh before Il-1β, also given ip. There were 5 animals per treatment group.
Delta reaction time was measured 3h after Il-1β administration.
The Control was II-1β (0.05U), given ip.

[3] = test system: hyperalgesia evoked by acetic acid; experiment: Contortions (writhing) evoked by acetic acid, Examples 9 and 10; format: in vivo, mice; details: Example 10; for total number of contorsions during 20 minutes after ip challenge: control 45.3
Description: as §1, §2

[4] = test system: human blood mononuclear cells (MNC); experiment: PGE2 release by human blood mononuclear cells; format: cell-based
Description: The effect of K(D)PT and indomethacin on PGE2 release by human blood mononuclear cells (MNC) was investigated. The MNC were isolated from buffy coat residues by density gradient centrifugation (Ficoll-hypaque, Sigma) and resuspended in RPMI 1640 culture medium (Gibco)+ 2% inactivated foetal calf serum (Imperial Laboratories). […] Values are means of quadruplicates ±s.e.m.'s. PGE2 concentrations were measured by radioimmunoassay (NEN Research Products).

[5] = test system: hyperalgesia evoked by acetic acid; experiment: Contorsions evoked by acetic acid, Example 19; format: in vivo, mice; details: for number of contorsions (median), 10 to 20 min after acetic acid: 30 min before acetic acid
Description: The number of contorsions (abdominal constrictions or writhes) was counted in the period between 10 and 20 min after ip challenge with acetic acid by an observer unaware of drug treatment.

[6] = mouse, in vivo
[7] = Gastric lesions in mice
[8] = test system: hyperalgesia evoked by DbcAMP; experiment: Rat paw pressure test, hyperalgesia evoked by DbcAMP; format: in vivo; details: for % change of delta reaction time vs control (=100%) / DELTA REACTION TIME: 200 μg/150 g rat ip 1 h before DbcAMP (100 μg/paw) ipl; for DELTA REACTION TIME: 3 h after DbcAMP, control 17.2
[9] = test system: hyperalgesia evoked by PGE2; experiment: Rat paw pressure test, hyperalgesia evoked by PGE2; format: in vivo; details: for DELTA REACTION TIME: 3 h after PGE2, control 16.8; for ED50 antagonising PGE2 evoked hyperalgesia / antagonism of hyperalgesia evoked by PGE2: rats
[10] = test system: febrile rabbits; details: Richards and Lipton, Peptides 5 (1984) 815-817; cited from earlier work
[11] = test system: hyperalgesia evoked by IL-1β; details: reference analgesics; cited from earlier work
[12] = in vivo
[13] = indomethacin 100 μg ipl 30 minutes before 0.05U IL-1β ipl or ip
[14] = 20 μg/150 g rat ip 1h before IL-1β (0.05U) ip
[15] = 50 μg/150 g rat ip 1h before IL-1β (0.05U) ip
[16] = 100 μg/150 g rat ip 1h before IL-1β (0.05U) ip
[17] = 200 μg/150 g rat ip 1h before IL-1β (0.05U) ip
[18] = 20 μg/150 g rat ip 1h before PGE2 ipl
[19] = 50 μg/150 g rat ip 1h before PGE2 ipl
[20] = 100 μg/150 g rat ip 1h before PGE2 ipl
[21] = 200 μg/150 g rat ip 1h before PGE2 ipl

Structure (SMILES): COc1ccc2c(c1)c(CC(=O)O)c(C)n2C(=O)c1ccc(Cl)cc1 [Indomethacin, indomethacin]
- (-%) reduction of contorsions vs control ([1]; 1.25 mg/kg): 7.6%
- total number of contorsions during 20 minutes after ip challenge ([1]; 1.25 mg/kg): 36.4
- (-%) reduction of contorsions vs control ([1]; 5.0 mg/kg): 26.0%
- total number of contorsions during 20 minutes after ip challenge ([1]; 5.0 mg/kg): 29.2
- (-%) reduction of contorsions vs control ([1]; 20.0 mg/kg): 46.0%
- total number of contorsions during 20 minutes after ip challenge ([1]; 20.0 mg/kg): 21.3
- effect of pretreatment on hyperalgesic response to IL-1β, contralateral paws (CL) [2, 13]: no effect
- effect of pretreatment on hyperalgesic response to IL-1β, treated paws (I) [2, 13]: markedly attenuated
- total number of contorsions during 20 minutes after ip challenge ([3]; acetic acid .6% 0.1 ml/10 g, 1.25 mg/kg): 34.6
- (-%) reduction of contorsions vs control ([3]; acetic acid .6%, 1.25 mg/kg): 23.6%
- (-%) reduction of contorsions vs control ([3]; acetic acid .6%, 5.0 mg/kg): 46.3%
- total number of contorsions during 20 minutes after ip challenge ([3]; acetic acid .6%, 5.0 mg/kg): 24.3
- (-%) reduction of contorsions vs control ([3]; acetic acid .6%, 20.0 mg/kg): 57.4%
- total number of contorsions during 20 minutes after ip challenge ([3]; acetic acid .6%, 20.0 mg/kg): 19.3
- effect on production of PGE2 / prostaglandin [4]: abolished PGE2 production
- PGE2 release by MNC incubated for 4h with IL-1α (50 U/ml) ([4]; 2 μg/ml, 5.9 micromoles/L, added 45 min before, ethanol control 2.0): 0.03 ± 0.0007 ng/mL
- PGE2 release by MNC incubated for 4h with IL-1β (50 U/ml) ([4]; 2 μg/ml, 5.9 micromoles/L, added 45 min before, ethanol control 2.1): 0.03 ± 0.0005 ng/mL
- PGE2 release by MNC incubated for 4h with E. coli endotoxin (25 pg/ml) ([4]; 2 μg/ml, 5.9 micromoles/L, added 45 min before, ethanol control 3.1): 0.03 ± 0.0004 ng/mL
- PGE2 release by MNC (5 × 10^6 cells/ml) incubated for 4h with Saline control (0.9% w/v) ([4]; 2 μg/ml, 5.9 micromoles/L, ethanol control 1.3): 0.03 ± 0.0002 ng/ml
- % reductions from control values in mice injected with saline ([5]; 2.5 mg/kg ip): -37%
- number of contorsions (median), 10 to 20 min after acetic acid ([5]; 2.5 mg/kg ip): 16.5
- % reductions from control values in mice injected with saline ([5]; 5 mg/kg ip): -61.5%
- number of contorsions (median), 10 to 20 min after acetic acid ([5]; 5 mg/kg ip): 10
- % reductions from control values in mice injected with saline ([5]; 10 mg/kg ip): -61.5%
- number of contorsions (median), 10 to 20 min after acetic acid ([5]; 10 mg/kg ip): 10
- gastric erosions, % of the mice [6]: 100%
- gastric lesions [6]: caused gastric lesions

Structure (SMILES): NCCCC[C@H](N)C(=O)N1CCC[C@@H]1C(=O)O [K(D)P, Lys-D-Pro] (H-Lys-[dP]-OH)
- % reductions from control values in mice injected with saline ([5]; 5 mg/kg ip): -58%
- number of contorsions (median), 10 to 20 min after acetic acid ([5]; 5 mg/kg ip): 11
- % reductions from control values in mice injected with saline ([5]; 5 mg/kg po): -10%
- number of contorsions (median), 10 to 20 min after acetic acid ([5]; 5 mg/kg po): 19
- % reductions from control values in mice injected with saline ([5]; 10 mg/kg po): -36%
- number of contorsions (median), 10 to 20 min after acetic acid ([5]; 10 mg/kg po): 13.5
- % reductions from control values in mice injected with saline ([5]; 20 mg/kg ip): -77%
- number of contorsions (median), 10 to 20 min after acetic acid ([5]; 20 mg/kg ip): 6
- % reductions from control values in mice injected with saline ([5]; 20 mg/kg po): -38%
- number of contorsions (median), 10 to 20 min after acetic acid ([5]; 20 mg/kg po): 14
- analgesic activity against hyperalgesia evoked by acetic acid, given ip [5]: effective analgesic
- analgesic activity against hyperalgesia evoked by acetic acid, given orally ([5]; po): effective analgesic

Structure (SMILES): C[C@@H](O)[C@H](NC(=O)[C@H]1CCCN1C(=O)[C@@H](N)CCCCN)C(=O)O [K(D)PT, Lys-D-Pro-Thr] (H-Lys-[dP]-Thr-OH)
- gastric lesions ([7]; 32 mg/kg): No lesions were observed
- gastric lesions ([7]; mice of Example 10): did not

Structure (SMILES): CC(C)[C@H](NC(=O)[C@H]1CCCN1C(=O)[C@@H](N)CCCCN)C(=O)O [K(D)PV, Lys-D-Pro-Val] (H-Lys-[dP]-Val-OH)
- % change of delta reaction time vs control (=100%) [2, 14]: -23.9%
- DELTA REACTION TIME [2, 14]: 18.2 ± 0.4 s
- % change of delta reaction time vs control (=100%) [2, 15]: -64.4%
- DELTA REACTION TIME [2, 15]: 8.5 ± 0.6 s
- % change of delta reaction time vs control (=100%) [2, 16]: 84.1%
- DELTA REACTION TIME [2, 16]: 3.8 ± 0.7 s
- % change of delta reaction time vs control (=100%) [2, 17]: -88.3%
- DELTA REACTION TIME [2, 17]: 2.8 ± 0.6 s
- ED50 antagonising IL-1β evoked hyperalgesia [2]: 40 μg/150 g rat
- antagonism of hyperalgesia evoked by IL-1β [2]: more potent antagonists of I1-1β-evoked hyperalgesia than Lys-D-Pro-Thr
- % change of delta reaction time vs control (=100%) [8]: -7.0%
- DELTA REACTION TIME [8]: 16.0 ± 0.2 s
- % reductions from control values in mice injected with saline ([5]; 2 mg/kg ip): -33%
- number of contorsions (median), 10 to 20 min after acetic acid ([5]; 2 mg/kg ip): 19
- % reductions from control values in mice injected with saline ([5]; 10 mg/kg ip): -38%
- number of contorsions (median), 10 to 20 min after acetic acid ([5]; 10 mg/kg ip): 17
- % reductions from control values in mice injected with saline ([5]; 30 mg/kg ip): -45%
- number of contorsions (median), 10 to 20 min after acetic acid ([5]; 30 mg/kg ip): 15.5
- % reductions from control values in mice injected with saline ([5]; 100 mg/kg ip): -74%
- number of contorsions (median), 10 to 20 min after acetic acid ([5]; 100 mg/kg ip): 7
- % reductions from control values in mice injected with saline ([5]; 100 mg/kg po): -52%
- number of contorsions (median), 10 to 20 min after acetic acid ([5]; 100 mg/kg po): 13
- analgesic activity against hyperalgesia evoked by acetic acid, given ip [5]: dose-related analgesic activity
- % change of delta reaction time vs control (=100%) [9, 18]: -16.7%
- DELTA REACTION TIME [9, 18]: 14.0 ± 0.4 s
- % change of delta reaction time vs control (=100%) [9, 19]: -20.2%
- DELTA REACTION TIME [9, 19]: 13.4 ± 0.4 s
- % change of delta reaction time vs control (=100%) [9, 20]: -46±4%
- DELTA REACTION TIME [9, 20]: 9.0 ± 0.2 s
- % change of delta reaction time vs control (=100%) [9, 21]: -64.3%
- DELTA REACTION TIME [9, 21]: 6.0 ± 0.3 s
- ED50 antagonising PGE2 evoked hyperalgesia [9]: ~140 μg/150 g rat
- antagonism of hyperalgesia evoked by PGE2 [9]: antagonize hyperalgesia evoked by PGE2

Structure (SMILES): CC(C)[C@H](NC(=O)[C@@H]1CCCN1C(=O)[C@@H](N)CCCCN)C(=O)O [KPV, Lys-Pro-Val] (H-Lys-Pro-Val-OH)
- % change of delta reaction time vs control (=100%) [2, 14]: -21.3%
- DELTA REACTION TIME [2, 14]: 18.8 ± 0.3 s
- % change of delta reaction time vs control (=100%) [2, 15]: -52.7%
- DELTA REACTION TIME [2, 15]: 11.3 ± 0.5 s
- % change of delta reaction time vs control (=100%) [2, 16]: -69.9%
- DELTA REACTION TIME [2, 16]: 7.2 ± 0.6 s
- % change of delta reaction time vs control (=100%) [2, 17]: -83.7%
- DELTA REACTION TIME [2, 17]: 3.9 ± 0.3 s
- ED50 antagonising IL-1β evoked hyperalgesia [2]: 70 μg/150 g rat
- antagonism of hyperalgesia evoked by IL-1β [2]: more potent antagonists of I1-1β-evoked hyperalgesia than Lys-D-Pro-Thr
- % change of delta reaction time vs control (=100%) [8]: -8.1%
- DELTA REACTION TIME [8]: 15.8 ± 0.3 s
- antipyretic effect [10]: antipyretic effect
- % change of delta reaction time vs control (=100%) [9, 18]: -11.3%
- DELTA REACTION TIME [9, 18]: 14.9 ± 0.4 s
- % change of delta reaction time vs control (=100%) [9, 19]: -22.6%
- DELTA REACTION TIME [9, 19]: 13.0 ± 0.3 s
- % change of delta reaction time vs control (=100%) [9, 20]: -41.1%
- DELTA REACTION TIME [9, 20]: 9.9 ± 0.2 s
- % change of delta reaction time vs control (=100%) [9, 21]: -53.6%
- DELTA REACTION TIME [9, 21]: 7.8 ± 0.6 s
- ED50 antagonising PGE2 evoked hyperalgesia [9]: approximately 170 μg/150 g rat
- antagonism of hyperalgesia evoked by PGE2 [9]: antagonize hyperalgesia evoked by PGE2

Structure (SMILES): CN1CC[C@]23c4c5ccc(O)c4O[C@H]2[C@@H](O)C=C[C@H]3[C@H]1C5 [Morphine, morphine]
- antagonism of hyperalgesia evoked by DbcAMP ([8]; rat, in vivo): effective antagonist
- antagonism of on-going hyperalgesia [11]: able to antagonize on-going hyperalgesia
- reaction time difference, hot plate [12]: 3.52 s and 5.55 s

Structure (SMILES): Cc1c(N(C)CS(=O)(=O)O)c(=O)n(-c2ccccc2)n1C [dipyrone]
- antagonism of on-going hyperalgesia [11]: able to antagonize on-going hyperalgesia
